Assay [1] deals with pS6K1 in MCF7 (measure of mTORC1 activity). Kind of assay: AlphaLISA Ultra pS6K1 assay. The format is cell-based. The settings on record: MCF-7 cells, 2 hours compound incubation. The gist of the method: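 MCF7 cells, refreshed medium 2 h, treated with compound 2 h at 0.5% DMSO final, then lysed. Phospho-S6K1 in lysates detected by AlphaLISA Ultra (acceptor beads 2 h, donor beads 2 h), read as Alpha signal on a multimode reader.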
In general terms: Alpha assays give light when donor and acceptor beads are brought close together.

Assay [2] deals with pAKT in MCF7 (measure of mTORC2 activity). Kind of assay: AlphaLISA Ultra pAKT assay. The format is cell-based. The settings on record: MCF-7 cells, 2 hours compound incubation. Put shortly:
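MCF7 cells, 16,000-20,000 per well, treated with compound for 2 h at 0.5% final DMSO, then lysed. Phospho-AKT, as a readout of mTORC2 activity, measured by AlphaLISA Ultra with acceptor beads and then donor beads, 2 h each.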

pIC50: −log10 of the molar value. Where a name gives a salt, the structure may show the parent alone.

What is called pIC50 is −log10 of the IC50, conventionally taken in molar units. As to `Cc1c(CN2CCN(c3ncccc3Cl)CC2)cc(C(=O)N2CCN(c3cccc(Cl)c3)C[C@@H]2C)n1C` [Example I-90, (S)-(4-(3-chlorophenyl)-2-methylpiperazin-1-yl)(4-((4-(3-chloropyridin-2-yl)piperazin-1-yl)methyl)-1,5-dimethyl-1H-pyrrol-2-yl)methanone], the pIC50 was 5.52 to 6.00 in assay [1] (Homo sapiens, MCF7, 2 h) and under 5.52 in assay [2] (Homo sapiens, MCF7, 2 h).

Take `Cc1c(CN2CCN(c3ccccc3C#N)CC2)cc(C(=O)N2CCCN(c3ccc(F)cc3)CC2)n1C` [Example I-50, 2-(4-((5-(4-(4-Fluorophenyl)-1,4-diazepane-1-carbonyl)-1,2-dimethyl-1H-pyrrol-3-yl)methyl)piperazin-1-yl)benzonitrile]: the pIC50 was 5.52 to 6.00 in assay [1] (Homo sapiens, MCF7, 2 h) and under 5.00 in assay [2] (Homo sapiens, MCF7, 2 h).

In the case of `COCCCn1cc(CN2CCN(c3ccccc3Cl)CC2)cc1C(=O)N1CCN(c2ccccc2)CC1` [Example I-145], the pIC50 in assay [1] (Homo sapiens, MCF7, 2 h) was 5.00 to 5.52; in assay [2] (Homo sapiens, MCF7, 2 h), under 5.00.

As to `CC(=O)OCCn1cc(CN2CCN(c3ccccc3Cl)CC2)cc1C(=O)N1CCN(c2ccccc2)CC1` [Example I-148], the pIC50 was 5.52 to 6.00 in assay [1] (Homo sapiens, MCF7, 2 h) and under 5.00 in assay [2] (Homo sapiens, MCF7, 2 h).

Consider `Cc1c(CN2CCN(c3ccccc3Cl)CC2)cc(C(=O)N2CCN(c3cccc(Cl)c3)C[C@@H]2C)n1C` [Example I-112, (S)-(4-(3-chlorophenyl)-2-methylpiperazin-1-yl)(4-((4-(2-chlorophenyl)piperazin-1-yl)methyl)-1,5-dimethyl-1H-pyrrol-2-yl)methanone], for which the pIC50 in assay [1] (Homo sapiens, MCF7, 2 h) was 6.00 to 8.00; in assay [2] (Homo sapiens, MCF7, 2 h), under 5.52.

For `Cc1c(CN2CCN(c3ccccc3Cl)CC2)cc(C(=O)N2CCN(c3ccccc3)CC2)n1C` [Example I-133, (4-((4-(2-Chlorophenyl)piperazin-1-yl)methyl)-1,5-dimethyl-1H-pyrrol-2-yl)(4-phenylpiperazin-1-yl)methanone], the negative-log IC50 (pIC50) in assay [1] (Homo sapiens, MCF7, 2 h) is 6.00 to 8.00; in assay [2] (Homo sapiens, MCF7, 2 h), under 6.00.

Turning to `Cc1c(CN2CCN(c3ccccc3Cl)CC2)cc(C(=O)N2CCN(c3cccc(CCCN)c3)C[C@@H]2C)n1C` [Example I-30, (S)-(4-(3-(3-aminopropyl)phenyl)-2-methylpiperazin-1-yl)(4-((4-(2-chlorophenyl)piperazin-1-yl)methyl)-1,5-dimethyl-1H-pyrrol-2-yl)methanone trifluoroacetate salt], the pIC50 in assay [1] (Homo sapiens, MCF7, 2 h) was 5.00 to 5.52; in assay [2] (Homo sapiens, MCF7, 2 h), under 5.00.

In the case of `Cn1cc(CN2CCN(c3ccccc3C#N)CC2)cc1C(=O)N1CCN(c2ccccc2)CC1` [Example I-124, 2-(4-((1-methyl-5-(4-phenylpiperazine-1-carbonyl)-1H-pyrrol-3-yl)methyl)piperazin-1-yl)benzonitrile], the pIC50 in assay [1] (Homo sapiens, MCF7, 2 h) is 6.00 to 8.00; in assay [2] (Homo sapiens, MCF7, 2 h), under 5.52.

`COc1cccc(N2CCN(C(=O)c3cc(CN4CCN(c5ccccc5C#N)CC4)c(C)n3C)CC2)n1` [Example I-69]: the pIC50 is 6.00 to 8.00 in assay [1] (Homo sapiens, MCF7, 2 h) and under 5.52 in assay [2] (Homo sapiens, MCF7, 2 h).

On to `Cc1c(CN2CCN(c3ccccc3C#N)CC2)cc(C(=O)N2CCN(c3ccccn3)CC2)n1C` [Example I-60], for which the pIC50 was 6.00 to 8.00 in assay [1] (Homo sapiens, MCF7, 2 h) and under 5.52 in assay [2] (Homo sapiens, MCF7, 2 h).

As to `Cc1c(CN2CCN(c3ccccc3C#N)CC2)cc(C(=O)N2CCN(c3ccccc3S(C)(=O)=O)CC2)n1C` [Example I-21], the pIC50 was 5.52 to 6.00 in assay [1] (Homo sapiens, MCF7, 2 h) and under 5.00 in assay [2] (Homo sapiens, MCF7, 2 h).

Take `Cc1c(CN2CCN(c3ccccc3Cl)CC2)cc(C(=O)N2CCN(c3cc(C#N)ccn3)CC2)n1C` [Example I-59]: the pIC50 in assay [1] (Homo sapiens, MCF7, 2 h) was 5.52 to 6.00; in assay [2] (Homo sapiens, MCF7, 2 h), under 5.52.

With `Cc1c(CN2CCN(c3ccccc3C#N)CC2)cc(C(=O)N2CCN(c3ncccc3C#N)CC2)n1C` [Example I-56], the pIC50 in assay [1] (Homo sapiens, MCF7, 2 h) was 6.00 to 8.00; in assay [2] (Homo sapiens, MCF7, 2 h), under 5.52.

Regarding `Cc1c(CN2CCN(c3ccccc3C#N)CC2)cc(C(=O)N2CCN(c3cc(Cl)ccn3)CC2)n1C` [Example I-68], the pIC50 in assay [1] (Homo sapiens, MCF7, 2 h) was 6.00 to 8.00; in assay [2] (Homo sapiens, MCF7, 2 h), under 6.00.

In the case of `Cc1c(CN2CCN(c3ccccc3Cl)CC2)cc(C(=O)N2CCn3ncc(-c4ccccc4)c3C2)n1C` [Example I-35, (4-((4-(2-Chlorophenyl)piperazin-1-yl)methyl)-1,5-dimethyl-1H-pyrrol-2-yl)(3-phenyl-6,7-dihydropyrazolo[1,5-a]pyrazin-5(4H)-yl)methanone], the pIC50 in assay [1] (Homo sapiens, MCF7, 2 h) is 5.52 to 6.00; in assay [2] (Homo sapiens, MCF7, 2 h) it was under 5.00.

On to `Cc1c(CN2CCN(c3ncccc3Cl)CC2)cc(C(=O)N2CCN(c3ccccn3)CC2)n1C` [Example I-44], for which the pIC50 is 6.00 to 8.00 in assay [1] and under 5.52 in assay [2].

Consider `C[C@H]1CN(c2ccc(F)c(F)c2)CCN1C(=O)c1cc(CN2CCN(c3ccccc3Cl)CC2)cn1C` [Example I-117, (S)-(4-((4-(2-chlorophenyl)piperazin-1-yl)methyl)-1-methyl-1H-pyrrol-2-yl)(4-(3,4-difluorophenyl)-2-methylpiperazin-1-yl)methanone], for which the pIC50 was 6.00 to 8.00 in assay [1] (Homo sapiens, MCF7, 2 h) and under 5.52 in assay [2] (Homo sapiens, MCF7, 2 h).

Take `Cc1c(CN2CCN(c3ccccc3Cl)CC2)cc(C(=O)N2CCN(c3ccc(F)cc3)C[C@@H]2C)n1C` [Example I-95, (S)-(4-((4-(2-chlorophenyl)piperazin-1-yl)methyl)-1,5-dimethyl-1H-pyrrol-2-yl)(4-(4-fluorophenyl)-2-methylpiperazin-1-yl)methanone]: the pIC50 in assay [1] (Homo sapiens, MCF7, 2 h) was 6.00 to 8.00; in assay [2] (Homo sapiens, MCF7, 2 h), under 5.52.

As to `Cc1c(CN2CCN(c3ccccc3Cl)CC2)cc(C(=O)N2CCN(c3ccc(F)cc3)CC2)n1C` [Example I-115, (4-((4-(2-Chlorophenyl)piperazin-1-yl)methyl)-1,5-dimethyl-1H-pyrrol-2-yl)(4-(4-fluorophenyl)piperazin-1-yl)methanone], the negative logarithm of the IC50 (pIC50) in assay [1] (Homo sapiens, MCF7, 2 h) is 6.00 to 8.00; in assay [2] (Homo sapiens, MCF7, 2 h), under 5.52.

On to `Cn1cc(CN2CCN(c3ccccc3Cl)CC2)cc1C(=O)N1CCN(c2ccccc2)CC1` [Example I-144], for which the pIC50 is 5.52 to 6.00 in assay [1] (Homo sapiens, MCF7, 2 h) and under 5.52 in assay [2] (Homo sapiens, MCF7, 2 h).

Take `COc1ccnc(N2CCN(C(=O)c3cc(CN4CCN(c5ccccc5C#N)CC4)c(C)n3C)CC2)c1` [Example I-61]: the pIC50 in assay [1] (Homo sapiens, MCF7, 2 h) was 6.00 to 8.00; in assay [2] (Homo sapiens, MCF7, 2 h), under 5.52.

For the molecule `Cc1c(CN2CCN(c3ccccc3Cl)CC2)cc(C(=O)N2CCN(c3cc(F)c(F)cc3C#N)CC2)n1C` [Example I-1], the pIC50 was 6.00 to 8.00 in assay [1] (Homo sapiens, MCF7, 2 h) and under 6.00 in assay [2] (Homo sapiens, MCF7, 2 h).

Regarding `Cc1c(CN2CCN(c3ccccc3Cl)CC2)cc(C(=O)N2CCN(c3cccc(F)c3C#N)CC2)n1C` [Example I-107, 2-(4-(4-((4-(2-chlorophenyl)piperazin-1-yl)methyl)-1,5-dimethyl-1H-pyrrole-2-carbonyl)piperazin-1-yl)-6-fluorobenzonitrile], the pIC50 in assay [1] (Homo sapiens, MCF7, 2 h) is 6.00 to 8.00; in assay [2] (Homo sapiens, MCF7, 2 h) it was under 5.52.

As for `Cc1c(CN2CCN(c3ccccc3Cl)CC2)cc(C(=O)N2CCN(c3ccc4cc[nH]c4c3)C[C@@H]2C)n1C` [Example I-34, (S)-(4-(1H-indol-6-yl)-2-methylpiperazin-1-yl)(4-((4-(2-chlorophenyl)piperazin-1-yl)methyl)-1,5-dimethyl-1H-pyrrol-2-yl)methanone trifluoroacetate salt], the pIC50 in assay [1] (Homo sapiens, MCF7, 2 h) was 5.52 to 6.00; in assay [2] (Homo sapiens, MCF7, 2 h), under 5.00.

In the case of `Cc1c(CN2CCCN(c3ccccc3Cl)CC2)cc(C(=O)N2CCN(c3cccc(C#N)c3)C[C@@H]2C)n1C` [Example I-41, (S)-3-(4-(4-((4-(2-chlorophenyl)-1,4-diazepan-1-yl)methyl)-1,5-dimethyl-1H-pyrrole-2-carbonyl)-3-methylpiperazin-1-yl)benzonitrile], the pIC50 in assay [1] (Homo sapiens, MCF7, 2 h) was 5.52 to 6.00; in assay [2] (Homo sapiens, MCF7, 2 h) it was under 5.00.

Take `Cn1cc(CN2CCN(c3ccccc3C#N)CC2)cc1C(=O)N1CCN(c2nnccc2C#N)CC1` [Example I-17]: the pIC50 is 5.00 to 5.52 in assay [1] (Homo sapiens, MCF7, 2 h) and under 5.00 in assay [2] (Homo sapiens, MCF7, 2 h).

As for `Cc1cccc(N2CCN(C(=O)c3cc(CN4CCN(c5ccccc5C#N)CC4)c(C)n3C)CC2)n1` [Example I-64], the pIC50 is 6.00 to 8.00 in assay [1] (Homo sapiens, MCF7, 2 h) and under 5.52 in assay [2] (Homo sapiens, MCF7, 2 h).

For `Cc1c(CN2CCN(c3ccccc3Cl)CC2)cc(C(=O)N2CCCN(c3ccc(F)cc3)CC2)n1C` [Example I-49, (4-((4-(2-Chlorophenyl)piperazin-1-yl)methyl)-1,5-dimethyl-1H-pyrrol-2-yl)(4-(4-fluorophenyl)-1,4-diazepan-1-yl)methanone], the pIC50 was 5.52 to 6.00 in assay [1] (Homo sapiens, MCF7, 2 h) and under 5.00 in assay [2] (Homo sapiens, MCF7, 2 h).

For the molecule `Cn1cc(CN2CC3CN(c4ccccc4Cl)CC3C2)cc1C(=O)N1CCN(c2ccc(F)cc2)CC1` (centres unmarked) [Example I-131], the pIC50 in assay [1] (Homo sapiens, MCF7, 2 h) is 5.00 to 5.52; in assay [2] (Homo sapiens, MCF7, 2 h), under 5.00.

Take `Cc1c(CN2CCN(c3ccccc3Cl)CC2)cc(C(=O)N2CCN(c3cccc(C#N)c3)CC2)n1C` [Example I-110, 3-(4-(4-((4-(2-chlorophenyl)piperazin-1-yl)methyl)-1,5-dimethyl-1H-pyrrole-2-carbonyl)piperazin-1-yl)benzonitrile]: the pIC50 in assay [1] (Homo sapiens, MCF7, 2 h) is 6.00 to 8.00; in assay [2] (Homo sapiens, MCF7, 2 h), under 6.00.

As for `Cc1c(CN2CCN(c3ccccc3C#N)CC2)cc(C(=O)N2CCN(c3ccccc3C#N)C[C@@H]2C)n1C` [Example I-67], the pIC50 in assay [1] (Homo sapiens, MCF7, 2 h) is 6.00 to 8.00; in assay [2] (Homo sapiens, MCF7, 2 h), under 5.00.

For the molecule `Cc1nc(N2CCN(C(=O)c3cc(CN4CCN(c5ccccc5Cl)CC4)c(C#N)n3C)CC2)ccc1F` [Example I-37], the pIC50 is 6.00 to 8.00 in assay [1] (Homo sapiens, MCF7, 2 h) and under 5.52 in assay [2] (Homo sapiens, MCF7, 2 h).

With `Cc1c(CN2CCN(c3ccccc3C#N)CC2)cc(C(=O)N2CCN(c3ccc4ncn(C)c4c3)CC2)n1C` [Example I-48], the pIC50 in assay [1] (Homo sapiens, MCF7, 2 h) is 5.00 to 5.52; in assay [2] (Homo sapiens, MCF7, 2 h), under 5.00.

Take `O=C(c1cc(CN2CCN(c3ccccc3Cl)CC2)cn1CC(F)(F)F)N1CCN(c2ccccc2)CC1` [Example I-114, (4-((4-(2-Chlorophenyl)piperazin-1-yl)methyl)-1-(2,2,2-trifluoroethyl)-1H-pyrrol-2-yl)(4-phenylpiperazin-1-yl)methanone trifluoroacetate salt]: the pIC50 is 5.52 to 6.00 in assay [1] (Homo sapiens, MCF7, 2 h) and under 5.00 in assay [2] (Homo sapiens, MCF7, 2 h).

Source of the values: patent US20190389843A1, “PYRROLE mTORC INHIBITORS AND USES THEREOF” (Navitor Pharmaceuticals, Inc., priority 2016, published 2019).
